This is an account of results in patent publication US20220396565A1 (Hoffmann-La Roche Inc., priority 2020, published 2022).

Structures can show the parent of a compound that is named as a salt.

A word on the IC90: it is the concentration at which the effect reaches the 90% level.

The test deals with Acinetobacter baumannii ATCC17961. The test can be described thus: Antimicrobial susceptibility testing: 90% growth inhibitory concentration (IC90) determination, Iso-Sensitest broth. It counts as cell-based. As to conditions: Acinetobacter baumannii, ATCC17961, 90% growth inhibitory concentration, Acinetobacter baumannii ATCC17961, Iso-Sensitest broth; read-out: ATCC 17961 IC90. On the procedure:
The in vitro antimicrobial activity of the compounds was determined according to the following procedure:
The assay used a 10-points Iso-Sensitest broth medium to measure quantitatively the in vitro activity of the compounds against Acinetobacter baumannii ATCC17978 or ATCC17961.
Stock compounds in DMSO were serially twofold diluted (e.g. range from 10 to 0.02 μM final concentration) in 384 wells microtiter plates and inoculated with 49 μl the bacterial suspension in Iso-Sensitest medium to have a final cell concentration of ˜5×10^(5) CFU/ml in a final volume/well of 50 ul/well. Microtiter plates were incubated at 35±2° C.
Bacterial cell growth was determined with the measurement of optical density at k=600 nm each 20 minutes over a time course of 16 h. Growth inhibition was calculated during the logarithmic growth of the bacterial cells with determination of the concentration inhibiting 50% (IC50) and 90% (IC90) of the growth.
Table 1 provides the 90% growth inhibitory concentrations (IC90) in micromoles per liter of the compounds of present invention obtained against the strain Acinetobacter baumannii ATCC17978 or ATCC17961.
As for `COc1ccc(-c2cnc(C(=O)Nc3ccc(C(=O)N4CCC(C(=O)N5CCC(N)CC5)CC4)c(Cl)c3)n2C)c(F)c1F` [Example 39, N-[4-[4-(4-aminopiperidine-1-carbonyl)piperidine-1-carbonyl]-3-chloro-phenyl]-5-(2,3-difluoro-4-methoxy-phenyl)-1-methyl-imidazole-2-carboxamide formate], the IC90 was 70 nM. As for `COc1ccc(-c2cnc(C(=O)Nc3ccc(C(=O)N4CCC(C(=O)N5CC(CCN)C5)CC4)c(Cl)c3)n2C)c(F)c1F` [Example 40, N-[4-[4-[3-(2-aminoethyl)azetidine-1-carbonyl]piperidine-1-carbonyl]-3-chloro-phenyl]-5-(2,3-difluoro-4-methoxy-phenyl)-1-methyl-imidazole-2-carboxamide formate], the figure is 70 nM; as for `COc1ccc(-c2cnc(C(=O)Nc3ccc(C(=O)N4CC5(CC(C(=O)N6CCN[C@@H](CO)C6)C5)C4)c(Cl)c3)n2C)c(F)c1F` [Example 41, N-[3-chloro-4-[6-[(3R)-3-(hydroxymethyl)piperazine-1-carbonyl]-2-azaspiro[3,3]heptane-2-carbonyl]phenyl]-5-(2,3-difluoro-4-methoxy-phenyl)-1-methyl-imidazole-2-carboxamide], 140 nM.

Turning to `COc1ccc(-c2cnc(C(=O)Nc3ccc(C(=O)N4CC5(CNC5)C4)c(Cl)c3)n2C)c(F)c1F` [Example 42, N-[3-chloro-4-(2,6-diazaspiro[3.3]heptane-2-carbonyl)phenyl]-5-(2,3-difluoro-4-methoxy-phenyl)-1-methyl-imidazole-2-carboxamide trifluoroacetate], the IC90 turned out to be 170 nM. On to `CN(C)C1CN(C(=O)C2CCN(C(=O)c3ccc(NC(=O)c4ncc(-c5ccc(OC(F)F)c(F)c5F)n4C)cc3Cl)CC2)C1` [Example 43, N-[3-chloro-4-[4-[3-(dimethylamino)azetidine-1-carbonyl]piperidine-1-carbonyl]phenyl]-5-[4-(difluoromethoxy)-2,3-difluoro-phenyl]-1-methyl-imidazole-2-carboxamide trifluoioacetate], for which the IC90 was found to be 90 nM. In the case of `Cn1c(-c2ccc(OC(F)F)c(F)c2F)cnc1C(=O)Nc1ccc(C(=O)N2CCC(C(=O)N[C@H]3CNC[C@H]3F)CC2)c(Cl)c1` [Example 44, 1-[2-chloro-4-[[5-[4-(difluoromethoxy)-2,3-difluoro-phenyl]-1-methyl-imidazole-2-carbonyl]amino]benzoyl]-N-[(3S,4R)-4-fluoropyrrolidin-3-yl]piperidine-4-carboxamide trifluoroacetate], the IC90 was found to be 30 nM. Consider `Cn1c(-c2ccc(OC(F)F)c(F)c2F)cnc1C(=O)Nc1ccc(C(=O)N2CCC(C(=O)N3CC[C@@H](N)C3)CC2)c(Cl)c1` [Example 45, N-[4-[4-[(3R)-3-aminopyrrolidine-1-carbonyl]piperidine-1-carbonyl]-3-chloro-phenyl]-5-[4-(difluoromethoxy)-2,3-difluoro-phenyl]-1-methyl-imidazole-2-carboxamide trifluoroacetate], for which the IC90 is 80 nM. Turning to `Cn1c(-c2ccc(OC(F)F)c(F)c2F)cnc1C(=O)Nc1ccc(C(=O)N2CCC(C(=O)N3CC[C@H](N)C3)CC2)c(Cl)c1` [Example 46, N-[4-[4-[(3S)-3-aminopyrrolidine-1-carbonyl]piperidine-1-carbonyl]-3-chloro-phenyl]-5-[4-(difluoromethoxy)-2,3-difluoro-phenyl]-1-methyl-imidazole-2-carboxamide trifluoroacetate], the IC90 amounted to 70 nM. Consider `Cn1c(-c2ccc(OC(F)F)c(F)c2F)cnc1C(=O)Nc1ccc(C(=O)N2CCC(C(=O)NC[C@@H]3CCNC3)CC2)c(Cl)c1` [Example 47, 1-[2-chloro-4-[[5-[4-(difluoromethoxy)-2,3-difluoro-phenyl]-1-methyl-imidazole-2-carbonyl]amino]benzoyl]-N-[[(3R)-pyrrolidin-3-yl]methyl]piperidine-4-carboxamide trifluoroacetate], for which the IC90 amounted to 40 nM.

Take `Cn1c(-c2ccc(OC(F)F)c(F)c2F)cnc1C(=O)Nc1ccc(C(=O)N2CCC(C(=O)NC[C@H]3CCNC3)CC2)c(Cl)c1` [Example 48, 1-[2-chloro-4-[[5-[4-(difluoromethoxy)-2,3-difluoro-phenyl]-1-methyl-imidazole-2-carbonyl]amino]benzoyl]-N-[[(3S)-pyrrolidin-3-yl]methyl]piperidine-4-carboxamide trifluoroacetate]: the IC90 amounted to 40 nM.

In the case of `Cn1c(-c2ccc(OC(F)F)c(F)c2F)cnc1C(=O)Nc1ccc(C(=O)N2CCC(C(=O)N3CCC(C(N)=O)C3)CC2)c(Cl)c1` (stereo not drawn) [Example 49, N-[4-[4-(3-carbamoylpyrrolidine-1-carbonyl)piperidine-1-carbonyl]-3-chloro-phenyl]-5-[4-(difluoromethoxy)-2,3-difluoro-phenyl]-1-methyl-imidazole-2-carboxamide trifluoroacetate], the 90% effect concentration (IC90) worked out at 150 nM. Turning to `Cn1c(-c2ccc(OC(F)F)c(F)c2F)cnc1C(=O)Nc1ccc(C(=O)N2CCC(C(=O)N[C@H]3CNC[C@@H]3O)CC2)c(Cl)c1` [Example 50, 1-[2-chloro-4-[[5-[4-(difluoromethoxy)-2,3-difluoro-phenyl]-1-methyl-imidazole-2-carbonyl]amino]benzoyl]-N-[(3S,4S)-4-hydroxypyrrolidin-3-yl]piperidine-4-carboxamide trifluoroacetate], the IC90 amounted to 50 nM.

For `Cn1c(-c2ccc(OCF)c(F)c2F)cnc1C(=O)Nc1ccc(C(=O)N2CCC(C(=O)N[C@H]3CNC[C@H]3F)CC2)c(Cl)c1` [Example 51, 1-[2-chloro-4-[[5-[2,3-difluoro-4-(fluoromethoxy)phenyl]-1-methyl-imidazole-2-carbonyl]amino]benzoyl]-N-[(3S,4R)-4-fluoropyrrolidin-3-yl]piperidine-4-carboxamide trifluoroacetate], the IC90 amounted to 30 nM. In the case of `CN1CCC(NNC(=O)C2CCN(C(=O)c3ccc(NC(=O)c4ncc(-c5ccc(OCF)c(F)c5F)n4C)cc3Cl)CC2)CC1` [Example 52, N-[3-chloro-4-[4-[[(1-methyl-4-piperidyl)amino]carbamoyl]piperidine-1-carbonyl]phenyl]-5-[2,3-difluoro-4-(fluoromethoxy)phenyl]-1-methyl-imidazole-2-carboxamide trifluoroacetate], the IC90 is 130 nM.

With `Cn1c(-c2ccc(OCF)c(F)c2Cl)cnc1C(=O)Nc1ccc(C(=O)N2CCC(C(=O)N[C@@H]3CNC[C@H]3O)CC2)c(Cl)c1` [Example 53, 1-[2-chloro-4-[[5-[2-chloro-3-fluoro-4-(fluoromethoxy)phenyl]-1-methyl-imidazole-2-carbonyl]amino]benzoyl]-N-[(3R,4R)-4-hydroxypyrrolidin-3-yl]piperidine-4-carboxamide formate], the 90% effect concentration (IC90) was 50 nM. In the case of `Cn1c(-c2ccc(OCF)c(F)c2F)cnc1C(=O)Nc1ccc(C(=O)N2CCC(C(=O)NC[C@@H]3CCNC3)CC2)c(Cl)c1` [Example 54, 1-[2-chloro-4-[[5-[2,3-difluoro-4-(fluoromethoxy)phenyl]-1-methyl-imidazole-2-carbonyl]amino]benzoyl]-N-[[(3R)-pyrrolidin-3-yl]methyl]piperidine-4-carboxamide formate], the IC90 is 40 nM. Regarding `COc1ccc(-c2cnc(C(=O)Nc3ccc(C(=O)N4CCC(C(=O)NC[C@@H]5CCNC5)CC4)c(Cl)c3)n2C)c(F)c1F` [Example 55, 1-[2-chloro-4-[[5-(2,3-difluoro-4-methoxy-phenyl)-1-methyl-imidazole-2-carbonyl]amino]benzoyl]-N-[[(3R)-pyrrolidin-3-yl]methyl]piperidine-4-carboxamide formate], the IC90 came out at 50 nM.

With `COc1ccc(-c2cnc(C(=O)Nc3ccc(C(=O)N4CCC(C(=O)NC[C@H]5CCNC5)CC4)c(Cl)c3)n2C)c(F)c1F` [Example 56, 1-[2-chloro-4-[[5-(2,3-difluoro-4-methoxy-phenyl)-1-methyl-imidazole-2-carbonyl]amino]benzoyl]-N-[[(3S)-pyrrolidin-3-yl]methyl]piperidine-4-carboxamide formate], the IC90 stood at 70 nM. Turning to `COc1ccc(-c2cnc(C(=O)Nc3ccc(C(=O)N4CCC(C(=O)NCC5(O)CNC5)CC4)c(Cl)c3)n2C)c(F)c1F` [Example 57, 1-[2-chloro-4-[[5-(2,3-difluoro-4-methoxy-phenyl)-1-methyl-imidazole-2-carbonyl]amino]benzoyl]-N-[(3-hydroxyazetidin-3-yl)methyl]piperidine-4-carboxamide formate], the IC90 worked out at 60 nM. The result for `COc1ccc(-c2cnc(C(=O)Nc3ccc(C(=O)N4CCC(C(=O)N[C@H]5CCNC5)CC4)c(Cl)c3)n2C)c(F)c1F` [Example 58, 1-[2-chloro-4-[[5-(2,3-difluoro-4-methoxy-phenyl)-1-methyl-imidazole-2-carbonyl]amino]benzoyl]-N-[(3S)-pyrrolidin-3-yl]piperidine-4-carboxamide formate] reads 50 nM; that for `COc1ccc(-c2cnc(C(=O)Nc3ccc(C(=O)N4CCC(C(=O)N[C@H]5[C@@H]6CNC[C@@H]65)CC4)c(Cl)c3)n2C)c(F)c1F` [Example 59, N-[(1S,5R)-3-azabicyclo[3.1.0]hexan-6-yl]-1-[2-chloro-4-[[5-(2,3-difluoro-4-methoxy-phenyl)-1-methyl-imidazole-2-carbonyl]amino]benzoyl] piperidine-4-carboxamide formate], 50 nM.
